Assay results published in ChEMBL document CHEMBL6092130, “Recent advances in the treatment of gout with NLRP3 inflammasome inhibitors” (Bioorg Med Chem, 2024).
One block for each compound: values may come before it.

Assays:
[1] = Inhibition of NLRP3 inflammasome activation in LPS-induced mouse RAW264.7 cells assessed as downregulation of NLRP3 expression; type: cell-based
[2] = Antiinflammatory activity against LPS-stimulated human MDM cells assessed as inhibition of LPS-induced IL-1beta level at 20 uM incubated for 24 hrs by ELISA relative to control; type: functional; design: scale not given: the % may be the effect or the level left
[3] = Inhibition of NLRP3 inflammasome in mouse J774.A1 cells assessed as inhibition of IL-1 beta secretion; type: cell-based
[4] = Oral bioavailability in human; type: ADME, organism-based; conditions: in vivo
[5] = Inhibition of NLRP3 inflammasome activation in LPS-induced mouse RAW264.7 cells assessed as reduction of NLRP3 expression by Western blot analysis; type: cell-based
RAW264.7 = assay: Antiinflammatory activity against mouse RAW264.7 cells assessed as decrease in LPS-induced IL-1beta level at 20 uM incubated for 24 hrs by ELISA relative to control; type: functional; design: scale not given: the % may be the effect or the level left
[6] = Cytotoxicity against human PBMC cells assessed as reduction in cell viability by CellTiter Glo assay; type: functional, cell-based

IC50 [1]: 7.5 nM
Structure (SMILES): CC(C)(O)c1coc(S(=O)(=O)NC(=O)Nc2c3c(cc4c2CCC4)CCC3)c1

Structure (SMILES): CS(=O)(=O)CCC#N
Activity [2]: 60%

IC50 [1]: 550 nM
Structure (SMILES): CCCCN(CCCC)S(=O)(=O)c1ccc(CCNC(=O)c2cc(Cl)ccc2OC)cc1

IC50 [1]: 450 nM
Structure (SMILES): COc1ccc(CNS(=O)(=O)c2ccc(CCNC(=O)c3cc(Cl)ccc3OC)cc2)cc1

IC50 [1]: 147 nM
Structure (SMILES): CNS(=O)(=O)c1ccc(CCNC(=O)c2ccccc2)cc1

IC50 [3]: 8.45 µM
Structure (SMILES): COc1ccc(Cl)cc1C(=O)NCCc1ccc(S(=O)(=O)NO)cc1

bioavailability [4]: 48.1%
Structure (SMILES): CC(C)C[C@H](NC(=O)[C@H](Cc1ccccc1)NC(=O)c1c(F)cccc1F)B(O)O

IC50 [5]: 13 µM
Structure (SMILES): COc1ccc(Cl)cc1C(=O)NCCc1ccc(S(=O)(=O)NC(=O)NC2CCCCC2)cc1 [GLYBURIDE]

Structure (SMILES): CC(C)C[C@H](NC(=O)CNC(=O)c1cc(Cl)ccc1Cl)B(O)O [IXAZOMIB]
Activity (RAW264.7): 77%

Structure (SMILES): C=C1C(=O)[C@]23[C@H](O)[C@H]1CC[C@H]2[C@@]12CO[C@]3(O)[C@@H](O)[C@@H]1C(C)(C)CC[C@@H]2O [ORIDONIN]
IC50 [6]: 5.18 µM
